{"source": "paper PMC6213900", "about": "“Design, Synthesis, and Cytotoxic Analysis of Novel Hederagenin–Pyrazine Derivatives Based on Partial Least Squares Discriminant Analysis” (International Journal of Molecular Sciences, 2018)", "key": {"[1]": {"system": "HepG2 (human hepatocellular carcinoma)", "assay": "MTT cytotoxicity assay, HepG2", "format": "cell-based", "conditions": "Homo sapiens, HepG2; MTT, 72 h treatment; read-out: Half Maximal Inhibitory Concentration (IC50) HepG2", "how_it_was_run": "(§1)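 Cells seeded at 3 × 10^3/well in DMEM/10% FBS, then treated 72 h with 3.125–50 μM compound in DMSO. MTT (5 mg/mL) added for 4 h, formazan dissolved in DMSO, absorbance read at 490 nm; inhibition relative to untreated control, IC50 as 50% growth inhibition, triplicate runs.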"}, "[2]": {"system": "H9c2 (murine heart myoblast)", "assay": "MTT toxicity evaluation, H9c2", "format": "cell-based", "conditions": "H9c2, 72 h treatment, non-tumor cells, read-out: Half Maximal Inhibitory Concentration (IC50) H9c2", "how_it_was_run": "as §1"}, "A549 cells [3]": {"system": "A549 cells", "assay": "DAPI staining, nuclear morphology", "format": "cell-based, human", "conditions": "6 μM, 72 h", "protocol": "As pictured in Figure 6, in the control group, the nucleus was intact and evenly colored. […] When the concentration of the drug increased, nuclear condensation, nuclear fragmentation, and the formation of apoptotic bodies appeared.\nA549 cells in the logarithmic growth phase were seeded in 12-well plates (1.2 × 10^4 cells/well). After incubation for 24 h at 37 °C with 5% CO2, various concentrations (0, 2, 4, or 6 μM) of compound 9 were added to the cultures, and the plate was incubated for further 72 h. Then, we discarded the cell culture fluid, washed twice with PBS, and fixed the cells with 4% paraformaldehyde for 10 min. After that, we added the appropriate amount of DAPI (1 mg/mL; Molecular Probes/Invitrogen Life Technologies, Carlsbad, CA, USA) to cover the bottom of the board, after staining for 5 min in the dark."}, "A549 cells [4]": {"system": "A549 cells", "assay": "Giemsa staining, morphological detection of apoptosis", "format": "cell-based, human", "conditions": "72 h", "protocol": "With an increase in dose, the phenomenon of cell shrinkage and cell disruption became more obvious.\nA549 cells in the logarithmic growth phase were seeded in 12-well plates (1.2 × 10^4 cells/well). After incubation for 24 h at 37 °C with 5% CO2, various concentrations (0, 2, 4, or 6 μM) of compound 9 were added to the cultures, and the plate was incubated for further 72 h. Then, we discarded the cell culture fluid, washed twice with phosphate-buffered saline (PBS), and fixed the cells with cold methanol. The A549 cells were stained with 6% Giemsa solution for 5 min, washed with water, and dried. The cell morphological changes were observed under an inverted microscope."}, "A549 cells [5]": {"system": "A549 cells", "assay": "Cell-cycle analysis by PI staining, flow cytometry", "format": "cell-based, human", "conditions": "72 h", "protocol": "The remarkable activity of compound 9 against the A549 cell line prompted us to investigate its effect on the cell cycle of A549 by flow cytometry.\nAccording to instructions, A549 cells were stained with the Cell Cycle and Apoptosis Analysis Kit (Beyotime Biotechnology, Shanghai, China). A549 cells in the logarithmic growth phase were seeded in six-well plates (4.8 × 10^4 cells/well). After incubation for 24 h at 37 °C with 5% CO2, various concentrations (0, 2, 5, or 10 μM) of compound 9 were added to the cultures, and the plate was incubated for a further 72 h. A549 cells were collected, washed twice with cold PBS, and centrifuged at 2400 rpm for 10 min. The resulting pellet was mixed with 1 mL of 70% ethanol, and retained for 12 h at 4 °C, before being centrifuged at 2400 rpm for 10 min. The supernatant was discarded, and the resulting pellet was mixed with 1mL of cold PBS and centrifuged at 2400 rpm for 10 min. Then, 0.5 mL of PI staining solution was added and mixed gently. After incubation at 37 °C for 30 min, the cells were immediately analyzed with a flow cytometer at 488 nm."}}}
{"smiles": "Cc1cncc(C(=O)OCCOC(=O)[C@]23CCC(C)(C)CC2C2=CCC4[C@@]5(C)CC[C@H](O)[C@@](C)(CO)C5CC[C@@]4(C)[C@]2(C)CC3)n1", "note": "(stereo partly drawn) [Compound 9, 2-(((4aS,6aS,6bR,9R,10S,12aR)-10-Hydroxy-9-(hydroxymethyl)-2,2,6a,6b,9,12a-hexamethyl-1,2,3,4,4a,5,6,6a,6b,7,8,8a,9,10,11,12,12a,12b,13,14b-icosahydropicene-4a-carbonyl)oxy)ethyl-6-methylpyrazine-2-carboxylate]", "values": [{"measurement": "IC50", "setting": "[1]", "value": "8.71 ± 0.38", "unit": "µM"}, {"measurement": "IC50", "setting": "[2]", "value": "16.69 ± 0.12", "unit": "µM"}, {"measurement": "nuclear morphology, DAPI staining", "setting": "A549 cells [3]", "value": "the number of cells decreased drastically, the shape of the cells became irregular, and nuclear fragmentation occurred"}, {"measurement": "cell morphology, Giemsa staining", "setting": "A549 cells [4]; 2 μM", "value": "the cells had a lot of puffing and fragmentation"}, {"measurement": "cell morphology, Giemsa staining", "setting": "A549 cells [4]; 6 μM", "value": "almost no normal cell morphology"}, {"measurement": "cells in G1 phase", "setting": "A549 cells [5]; 2 μM", "value": 57.46, "unit": "%"}, {"measurement": "cells in G2 phase", "setting": "A549 cells [5]; 2 μM", "value": 8.37, "unit": "%"}, {"measurement": "cells in S phase", "setting": "A549 cells [5]; 2 μM", "value": 34.17, "unit": "%"}, {"measurement": "cells in G1 phase", "setting": "A549 cells [5]; 5 μM", "value": 53.44, "unit": "%"}, {"measurement": "cells in G2 phase", "setting": "A549 cells [5]; 5 μM", "value": 0.00, "unit": "%"}, {"measurement": "cells in S phase", "setting": "A549 cells [5]; 5 μM", "value": 46.56, "unit": "%"}, {"measurement": "cells in G1 phase", "setting": "A549 cells [5]; 10 μM", "value": 39.54, "unit": "%"}, {"measurement": "cells in G2 phase", "setting": "A549 cells [5]; 10 μM", "value": 0.00, "unit": "%"}, {"measurement": "cells in S phase", "setting": "A549 cells [5]; 10 μM", "value": 60.46, "unit": "%"}]}
